One data set has as its system Adjuvant arthritis. Briefly: Adjuvant arthritis (paw volume increase). Type of data set: in vivo, male rats of a Wistar-Lewis strain. To be noted: for ED50: Rattus norvegicus, po, read-out: ED50 in adjuvant arthritis; for Adjuvant arthritis (% inhibition at 50 mg/kg p.o.): rat, 50 mg/kg p.o. once daily, day 1 to day 5, reduction in increase in paw volume vs control. How it is done: The investigations were carried out by the method of Pearson (Arthrit. Rheum. 2 (1959) p. 44). The experimental animals used were male rats of a Wistar-Lewis strain having a body weight between 130 and 200 g. The compounds to be tested were administered orally (p.o.) once daily from day 1 to day 5 of the experiment in doses of 50 mg per kg of body weight. The animals of a control group received only the vehicle. Each preparation and control group comprised 8 animals. The criterion used to determine an action was the percentage reduction in the increase in paw volume compared to that of the untreated control group.

For data set [1], the system named is lymphocytes. Briefly: Stimulation of suppressed immune response of lymphocytes towards mitogens in adjuvant arthritis. Type of data set: in vivo, rat. The settings on record: oral, Example 1 at 3.15 and 6.3 mg/kg, naproxen in doses up to 25 mg/kg.
Data set [2] relates to Arthritis induced by type II collagen. Briefly: Arthritis induced by type II collagen (paw volume). Type of data set: in vivo, male Wistar rats. To be noted: for inhibition of the increase in paw volume, collagen arthritis: oral once daily, 20-day treatment, naproxen at the same dosage. How it is done: (§1) In this experiment, arthritis was induced in male Wistar rats using type II collagen, which was obtained by standard methods of Miller and Rhodes (Meth. Enzymol. 82 (1982) p. 33) from the nasal septum of the calf and, mixed with Freund's incomplete adjuvant, was injected intradermally into the animals. This immunization process was repeated 7 days later. 20 days after the initial immunization, the affected rats were divided into groups each comprising 7 animals, which received the particular test substance or the pure vehicle (control group) orally once daily in the subsequent 20-day treatment phase. On day 41 of the experiment, i.e. one day after the final administration of substance, the increase in volume of both rear paws was determined.

The subject of data set [3] is lymphocytes. Briefly: Immune activity of spleen lymphocytes towards mitogens in collagen arthritis. Type of data set: in vivo, male Wistar rats. To be noted: Example 1: 12 mg/kg p.o. The method, then: as §1
The immune status of lymphocytes is also disturbed sensitively in this model of collagen arthritis.

The next data set deals with Arthus reaction. Nature of the data set: Active Arthus reaction. Type of data set: in vivo, female and male Sprague-Dawley rats. The settings on record: oral. How it is done:
The experimental animals used were female and male Sprague-Dawley rats having a body weight between 80 and 100 g; they were injected subcutaneously into the tail root with 0.5 ml of an emulsion of pertussis vaccine and ovalbumin in paraffin oil. After two weeks, the rats were divided into groups of 8 animals each. The respective test substance or the pure vehicle (positive control) were administered orally 24 hours and one hour before induction of the Arthus reaction by injecting 0.1 ml of a 0.4% strength ovalbumin solution into the right rear paw. Sodium chloride solution was injected into the left paw. A group of non-sensitized animals (negative control) was likewise treated with ovalbumin in order to be able to exclude non-specific reactions to the protein. The measurement parameter used for the action of the preparation was the inhibition of the increase in paw volume compared to that of a sensitized, but untreated control group (positive control) 4 hours after ovalbumin provocation, when the swelling reaches its maximum.

In data set [4] the test system is Adriamycin-induced inflammation. Briefly: Adriamycin-induced inflammation. To be noted: for protective effect against tissue destruction induced by Adriamycin: oral; for Increase in paw volume: 72 hours, control 430; for Protective action in %: * significance p < 0.05. Type of data set: in vivo, male Sprague-Dawley rats. From the text: According to current opinion, aggressive oxygen radicals, which are formed to excess during the chronic inflammation process and, as highly toxic inflammation mediators themselves, perpetually maintain the connective tissue destruction which proceeds via an irreversible lipid peroxidation of the cell membranes, are permanently involved in the progressive course, caused by a multitude of factors, of rheumatoid arthritis and other inflammatory disorders. As a result, antioxidatively active pharmaceuticals having the ability to deactivate these extremely cytotoxic oxygen radicals should permit specific engagement in the chronic course of the inflammation. A suitable animal model for this type of tissue destruction caused by oxygen radicals is Adriamycin (doxorubicin) induced inflammation in rats. The investigations were carried out by the method of D. M. Siegel et al. (Inflammation 4 (1980) p. 233) on male Sprague-Dawley rats having a body weight between 200 and 230 g in groups of 7 animals each, which received 0.1 mg of Adriamycin, dissolved in 0.1 ml of a 0.9% strength sodium chloride solution, by subcutaneous injection into the left rear paw. The increase in paw volume was determined by plethysmographic measurement 72 hours thereafter as a measure of the degree of inflammation. The test preparations were administered orally in 1% strength aqueous carboxymethylcellulose suspension once daily on 4 successive days, starting with the day of Adriamycin injection.

Data set [5] can be described thus: Acute gastral ulcerogenity. To be noted: rat, in vivo, po. Also noted: species or system male Sprague-Dawley rats. The method, then: The investigation took place in each case on 10 male Sprague-Dawley rats in which the gastric mucous membrane had been sensitized by hunger stress. The body weight of the animals was between 200 and 300 g. While allowing free access to the drinking water, the feed was withdrawn 48 hours before administration of the test preparations until sacrifice of the animals. The rats were sacrificed 24 hours after oral administration of the substance, and the stomachs were removed, cleaned under running water and inspected for mucous membrane lesions. All macroscopically visible lesions were regarded as ulcers. The number of animals having ulcers was determined for each dose, and the UD50 values, i.e. the doses at which lesions were caused in 50% of the animals, were calculated from this number by the method of Litchfield and Wilcoxon (J. Pharmacol. Exp. Ther. 96 (1949) p. 99).

A further data set in a line: in vivo. The settings on record: mouse, ip; for LD50 at 168 h: read-out: Acute toxicity LD50. The method, then: The LD50 values were determined by a standard method from the mortality occurring within 7 days in NMRI (Naval Medical Research Institute) mice (6 animals per dose) after a single intraperitoneal (i.p.) administration.
The test system of data set [6] is microsomal lipid peroxidation. Nature of the data set: In-vitro inhibition of lipid peroxidation, microsomes (thiobarbituric acid test). Type of data set: biochemical. The settings on record: microsomes from the rat liver. The source says:
(§2) Further convincing evidence of the pronounced protective action of the compounds according to the invention against aggressive oxygen radicals is provided by the thiobarbituric acid test of A. Ottolenghi (Arch. Biochem. Biophys. 79 (1959) pp. 355-363). Using this in-vitro method, the affect on microsomal and mitochondrial lipid peroxidation by antioxidatively active preparations can be determined from the malonodialdehyde produced on oxidative degredation of membrane-bound, polyunsaturated fatty acids.
(§3) Here too, the compounds of the formula I exerted a strong inhibitory action.

Data set [7] has as its system mitochondrial lipid peroxidation. Nature of the data set: In-vitro inhibition of lipid peroxidation, mitochondria (thiobarbituric acid test). Type of data set: biochemical. To be noted: mitochondria from the rat liver.
Text: as §2, §3

Another data set deals with 5-lipoxygenase. Nature of the data set: Inhibition of 5-lipoxygenase in isolated polymorphonuclear granulocytes. Type of data set: cell-based, human. The settings on record: concentration range between 10^-5 and 10^-6 mol/l, pre-incubation 15 minutes. How it is done:
The inhibitory action of the compounds according to the invention on 5-lipoxygenase-catalysed degredation of arachidonic acid was investigated,as usual, in in-vitro experiments on isolated polymorphonuclear human granulocytes. To this purpose, cells stimulated by calcium ionophor A 23 187 (Calbiochem GmbH, Frankfurt/Main, FRG, Biochemical and Immunochemical Catalog 1985, p. 284) were incubated with ^14 C-labeled arachidonic acid, and the major radioactive degredation products of arachidonic acid, 5-hydroxyeicosatetraenoic acid (5-HETE) and leukotriene […] (LTB4), which has a particularly strong proinflammatory action, formed after 15 minutes at 37° C. by biotransformation were determined quantitatively with the aid of a radio monitor after separation by high-pressure liquid chromatography (HPLC).

The mark [8] stands for this setting: NMRI mice, single i.p. administration, mortality within 7 days.

Where two headings read alike, the source gives them in different places.

The source of these data is patent publication US4908364A, “Substituted 3-phenyl-7H-thiazol[3,2-b][1,2,4]-triazin-7-ones” (Hoechst Aktiengesellschaft, priority 1987, dated 1990).

On to `COc1ccc2cc(C(C)C(=O)O)ccc2c1` (stereo not shown) [Naproxen, 2-(6-methoxy-2-naphthyl)-propionic acid, reference compound], for which, in the data set with Adjuvant arthritis, the ED50 amounted to 17.5 mg/kg and the “Adjuvant arthritis (% inhibition at 50 mg/kg p.o.)” value was 55%. Also, in the data set on lymphocytes [1], the “normalization of the immune reactivity of lymphocytes towards mitogens” value is recorded as “ineffective”. Also, the “inhibition of the increase in paw volume, collagen arthritis” value in [2] is “only non-significant inhibition values”. Besides, the “effect on immune function of lymphocytes in collagen arthritis” value in the data set on lymphocytes [3] is “no effect”. Moreover, the “effect on Arthus reaction” value in the data set on Arthus reaction is reported as “ineffective”. Besides, the “protective effect against tissue destruction induced by Adriamycin” value in data set [4] was “ineffective”.

Regarding `Cc1cc(-c2csc3nc(=O)cnn23)cc(C(C)(C)C)c1O` [Example 2, 3-(3-Tert.butyl-5-methyl-4-hydroxyphenyl)-7H-thiazolo[3,2-b][1,2,4]triazin-7-one], the “Adjuvant arthritis (% inhibition at 50 mg/kg p.o.)” value in the data set with Adjuvant arthritis was 41%. Further, the TD50 at 24 h in [5] is greater than 400 mg/kg. Also, in “in vivo” (setting [8]), the LD50 at 168 h is greater than 1200 mg/kg.

On to `CC(C)(C)c1cc(-c2csc3nc(=O)cnn23)cc(C(C)(C)C)c1O` [Example 1, 3-(3,5-Di-tert.butyl-4-hydroxyphenyl)-7H-thiazolo[3,2-b][1,2,4]triazin-7-one], for which, in the data set on Adjuvant arthritis, the ED50 came out at 10.9 mg/kg and the “Adjuvant arthritis (% inhibition at 50 mg/kg p.o.)” value was 67%. In addition, in data set [5], the TD50 at 24 h was greater than 400 mg/kg and the selectivity ratio is greater than 36.7. In addition, the selectivity ratio in “in vivo” (LD50 (mice i.p.) / ED50 (adjuvant arthritis), read-out: therapeutic range, quotient LD50/ED50) is greater than 110. Further, in “in vivo” (setting [8]), the LD50 at 168 h was greater than 1200 mg/kg. In the data set with lymphocytes [1], the “normalization of the immune reactivity of lymphocytes towards mitogens” value is on record as “substantial normalization of the immune reactivity”. Further, the minimal effective dose in data set [2] (Rattus norvegicus, po, collagen arthritis, p.o., read-out: dose from which inhibition of the increase in paw volume was statistically significant) was no less than 25 mg/kg. The “inhibition of the increase in paw volume, collagen arthritis” value in data set [2] is on record as “dose-dependent inhibition of the increase in paw volume”. In the data set on lymphocytes [3], the “effect on immune function of lymphocytes in collagen arthritis” value was “completely normalized the immune function of both T and B lymphocytes”. In addition, in data set [4] (20 mg/kg p.o.), the “Increase in paw volume” value stood at 220 µL and the “Protective action in %” value is 49%. For the same compound, in [4] (40 mg/kg p.o.), the “Increase in paw volume” value is 200 µL and the “Protective action in %” value turned out to be 54%. Further, in data set [4] (80 mg/kg p.o.), the “Increase in paw volume” value was 10 µL and the “Protective action in %” value is 98%. Further, in data set [4], the “protective effect against tissue destruction induced by Adriamycin” value was “strong, dose-dependent protective effect”. For the same compound, 600 nM corresponded to half-maximal inhibition in [6] (IC50). Besides, in data set [7], the IC50 turned out to be 3000 nM. In addition, in the data set with 5-lipoxygenase, the “inhibition of formation of 5-HETE” value is “significantly inhibited” and the “inhibition of formation of LTB4” value is “significantly inhibited”.

Turning to `CC(C)(C)c1cc(-c2csc3nc(=O)c(CO)nn23)cc(C(C)(C)C)c1O` [Example 3, 3-(3,5-Di-tert.butyl-4-hydroxyphenyl)-6-hydroxymethyl-7H-thiazolo[3,2-b][1,2,4]triazin-7-one], the “Adjuvant arthritis (% inhibition at 50 mg/kg p.o.)” value in the data set on Adjuvant arthritis stood at 41%. The TD50 at 24 h in [5] was greater than 200 mg/kg. Further, the LD50 at 168 h in the data set “in vivo” (setting [8]) is greater than 1200 mg/kg.

As for `CCCc1nn2c(-c3cc(C(C)(C)C)c(O)c(C(C)(C)C)c3)csc2nc1=O` [Example 9], the “Adjuvant arthritis (% inhibition at 50 mg/kg p.o.)” value in the data set on Adjuvant arthritis is 45%. This compound also showed a TD50 at 24 h in [5] greater than 200 mg/kg. Besides, in the data set “in vivo”, the LD50 at 168 h was greater than 1200 mg/kg.

Take `Cc1nn2c(-c3cc(C(C)(C)C)c(O)c(C(C)(C)C)c3)csc2nc1=O` [Example 6]: the “Adjuvant arthritis (% inhibition at 50 mg/kg p.o.)” value in the data set on Adjuvant arthritis is given as 50%. The same compound returned a TD50 at 24 h in [5] greater than 200 mg/kg. Moreover, in “in vivo”, the LD50 at 168 h is greater than 1200 mg/kg.
